According to patent US11957680B2, “Pyruvate kinase activators for use in treating blood disorders” (Agios Pharmaceuticals, Inc., priority 2017, dated 2024):
pEC50: −log10 of the molar value.

Key:
PKR K410E = PKR K410E (Homo sapiens, UniProt P30613, K410E); test: PKR mutant assay (K410E), AC50, LDH/NADH-coupled, absorbance at 340 nm; assay type: biochemical; conditions: for AC50: Table 2, enzyme assay; for pEC50: Table 4, AC50, enzyme assay
Outline: (§1)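 Human PKR, wild type or K410E/R510Q mutant (40-400 ng/well), preincubated 60 min at room temperature with compound (11-point 3-fold series from 100 μM, 1% DMSO) in Tris pH 7.5/KCl/MgCl2 buffer with PEP 0.1-0.5 mM, 180 μM NADH, LDH. ADP (0.2-1.65 mM) started the reaction; LDH-coupled NADH consumption followed at 340 nm.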

PKR R510Q = PKR R510Q (Homo sapiens, UniProt P30613, R510Q); test: PKR mutant assay (R510Q), AC50, LDH/NADH-coupled, absorbance at 340 nm; assay type: biochemical; conditions: for PK R510Q AC50 / AC50: Table 2, enzyme assay; for pEC50: Table 4, AC50, enzyme assay, read-out: PK R510Q; for AC50: read-out: PK R510Q AC50
Chain of PKR R510Q (P30613 whole entry R510Q): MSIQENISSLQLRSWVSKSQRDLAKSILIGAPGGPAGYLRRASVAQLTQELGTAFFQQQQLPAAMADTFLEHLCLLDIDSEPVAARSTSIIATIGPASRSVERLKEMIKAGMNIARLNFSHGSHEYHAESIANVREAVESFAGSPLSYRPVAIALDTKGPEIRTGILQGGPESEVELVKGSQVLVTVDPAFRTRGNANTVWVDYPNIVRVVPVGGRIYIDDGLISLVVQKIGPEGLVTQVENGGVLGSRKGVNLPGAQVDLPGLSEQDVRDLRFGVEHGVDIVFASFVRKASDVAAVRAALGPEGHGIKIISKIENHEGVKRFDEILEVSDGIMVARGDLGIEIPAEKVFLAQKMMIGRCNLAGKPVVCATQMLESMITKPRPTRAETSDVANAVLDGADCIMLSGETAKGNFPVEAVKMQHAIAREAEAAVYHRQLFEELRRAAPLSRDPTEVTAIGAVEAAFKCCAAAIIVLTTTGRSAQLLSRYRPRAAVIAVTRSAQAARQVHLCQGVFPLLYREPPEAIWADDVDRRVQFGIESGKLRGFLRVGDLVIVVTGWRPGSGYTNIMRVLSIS
Outline: as §1

wild type PKR [1] = target: T1, wild type PKR (Homo sapiens, UniProt P30613); test: PKR (wild type) enzyme AC50 assay, LDH/NADH-coupled, absorbance at 340 nm; assay type: biochemical; conditions: for AC50: read-out: PKR WT AC50; for pEC50: Table 4, AC50, enzyme assay, read-out: PKR WT
T1 sequence (P30613 whole entry): as the sequence (P30613 whole entry R510Q) above, with Q510R counted along it
Outline: as §1

wild type PKR [2] = target: T1, wild type PKR; test: Cell based ATP assay in purified red blood cells (Cell-Titer-Glo); design: endogenous in cells; host or cells: purified red blood cells from healthy volunteers; conditions: overnight at 37° C., ATP levels; for AC50 / Cell based ATP assay AC50: Table 2, RBCs; for pEC50 / Cell based ATP assay: Table 4, AC50, RBCs
Outline: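 RBCs from healthy human donors' K2EDTA blood were leukocyte-depleted by filtration and resuspended in AGAM (PBS, 1% glucose, adenine, mannitol). Cells at 1×10^7 cells/mL were incubated overnight at 37 °C with serially diluted compound at 0.1% DMSO, and ATP was read by Cell-Titer-Glo luminescence.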

Chain of PKR K410E (P30613 whole entry K410E): as the sequence (P30613 whole entry R510Q) above, with K410E, Q510R counted along it

Row | SMILES | AC50 (PKR K410E) [nM] | AC50 (wild type PKR [1]; Table 2, enzyme assay) [nM] | AC50 (wild type PKR [2]) [nM] | pEC50 (PKR K410E) | pEC50 (PKR R510Q) | pEC50 (wild type PKR [1]) | AC50 (PKR R510Q) [nM] | further results
1 | Cn1c2nc([S+](C)[O-])sc2c2cnn(Cc3ccc(C#N)cc3)c(=O)c21 (stereo not shown) [Compound 75] | > 800 | > 800 | ≤ 1000 | – | – | – | – | PK R510Q AC50 (PKR R510Q): No Fit
2 | Cn1ccc(CCn2ncc3c4sc(Cc5cccnc5)nc4n(C)c3c2=O)n1 [Compound 400] | – | – | – | < 6.10 | < 6.10 | < 6.10 | – | pEC50 (wild type PKR [2]): < 6.00
3 | Cn1c2nc(Cc3cc[nH]n3)sc2c2cnn(Cc3ccc4ccccc4c3)c(=O)c21 [Compound 210] | – | – | – | > 6.52 | > 6.52 | > 6.52 | – | pEC50 (wild type PKR [2]): ≥ 6.00
4 | CCn1c2nc(Cc3cc[nH]n3)sc2c2cnn(Cc3ccccc3)c(=O)c21 [Compound 402] | – | – | – | < 6.10 | < 6.10 | < 6.10 | – | Cell based ATP assay (wild type PKR [2]): No Fit
5 | Cc1nc2c(s1)c1cnn(CCO)c(=O)c1n2C [Compound 67] | > 800 | > 800 | – | – | – | – | – | PK R510Q AC50 (PKR R510Q): No Fit; Cell based ATP assay AC50 (wild type PKR [2]): No Fit
6 | Cc1nc2c(s1)c1cnn(Cc3cccc(N)c3)c(=O)c1n2C [Compound 14] | < 300 | < 300 | ≤ 1000 | – | – | – | < 300 | –
7 | Cn1c2nc(CCc3cc[nH]n3)sc2c2cnn(Cc3cccc(N)n3)c(=O)c21 [Compound 394] | – | – | – | > 6.52 | > 6.52 | > 6.52 | – | pEC50 (wild type PKR [2]): ≥ 6.00
8 | Cc1nc2c(s1)c1cnn(Cc3ccc([N+](=O)[O-])cc3)c(=O)c1n2C [Compound 48] | > 800 | – | – | – | – | – | > 800 | PKR WT AC50 (wild type PKR [1]; Table 2, enzyme assay): No Fit; Cell based ATP assay AC50 (wild type PKR [2]): No Fit
9 | COc1cccc(Cn2ncc3c4sc(OC)nc4n(C)c3c2=O)c1 [Compound 22] | < 300 | < 300 | > 1000 | – | – | – | < 300 | –
10 | Cn1ccc(Cn2ncc3c4sc(Cc5cccc6cn[nH]c56)nc4n(C)c3c2=O)n1 [Compound 258] | – | – | – | > 6.52 | > 6.52 | > 6.52 | – | pEC50 (wild type PKR [2]): ≥ 6.00
11 | Cn1c2nc(Cc3ncsc3C(N)=O)sc2c2cnn(Cc3cccc4[nH]ncc34)c(=O)c21 [Compound 196] | – | – | – | > 6.52 | > 6.52 | > 6.52 | – | pEC50 (wild type PKR [2]): ≥ 6.00
12 | Cn1c2nc(Cc3cccc(S(N)(=O)=O)c3)sc2c2cnn(Cc3cccc4[nH]ncc34)c(=O)c21 [Compound 155] | < 300 | 301 to 800 | ≤ 1000 | – | – | – | < 300 | –
13 | C=Cc1nc2c(s1)c1cnn(Cc3cccc(OC)c3)c(=O)c1n2C [Compound 37] | > 800 | 301 to 800 | > 1000 | – | – | – | < 300 | –
14 | Cn1c2nc(S(C)(=O)=O)sc2c2cnn(Cc3cccc4[nH]ncc34)c(=O)c21 [Compound 92] | 301 to 800 | < 300 | ≤ 1000 | – | – | – | 301 to 800 | –
15 | COc1cccc(Cn2ncc3c4sc(C=O)nc4n(C)c3c2=O)c1 [Compound 38] | < 300 | < 300 | > 1000 | – | – | – | < 300 | –
16 | Cn1c2nc(Cc3cccc4cn[nH]c34)sc2c2cnn(Cc3cccc4[nH]ncc34)c(=O)c21 [Compound 181] | < 300 | < 300 | ≤ 1000 | – | – | – | < 300 | –
17 | Cn1c2nc(C(N)=O)sc2c2cnn(Cc3csc(N)n3)c(=O)c21 [Compound 146] | < 300 | 301 to 800 | ≤ 1000 | – | – | – | 301 to 800 | –
18 | CNc1ccc(Cc2nc3c(s2)c2cnn(Cc4cccc5[nH]ncc45)c(=O)c2n3C)cc1 [Compound 109] | < 300 | < 300 | ≤ 1000 | – | – | – | < 300 | –
19 | COc1cccc(Cn2ncc3c4sc(C)nc4n(C)c3c2=O)c1 [Compound 1] | < 300 | < 300 | ≤ 1000 | – | – | – | < 300 | –
20 | Cn1c2nc(Cc3ccc(O)cc3)sc2c2cnn(Cc3cccc4[nH]ncc34)c(=O)c21 [Compound 77] | < 300 | < 300 | ≤ 1000 | – | – | – | < 300 | –
21 | COc1cccc(Cn2ncc3c4sc([S+]([O-])c5ccccc5)nc4n(C)c3c2=O)c1 (stereo not shown) [Compound 35] | 301 to 800 | 301 to 800 | > 1000 | – | – | – | 301 to 800 | –
22 | Cn1ccc(Cn2ncc3c4sc(CCc5cccnc5)nc4n(C)c3c2=O)n1 [Compound 406] | – | – | – | < 6.10 | < 6.10 | < 6.10 | – | Cell based ATP assay (wild type PKR [2]): No Fit
